From patent US6821999B2 (priority 2001, dated 2004)
Read-outs that look alike come from different tables or passages of the source.

Key:
Type in all cases: cell-based, Staphylococcus aureus
S. aureus (MN8) = conditions: for TSST-1 produced compared to the control: S. aureus MN8, in the presence of the compound
S. aureus FRI-1169 = conditions: S. aureus FRI-1169, in the presence of triclosan
S. aureus FRI-1187 = conditions: S. aureus FRI-1187, in the presence of triclosan

Structure (SMILES)	Reduction of Toxin (%) (S. aureus (MN8))	reduced the amount of toxin produced (S. aureus (MN8))	TSST-1 produced compared to the control (S. aureus (MN8))	Reduction of Toxin (%) (S. aureus (MN8); S. aureus MN8, test compound 2 μg/mL, 24 h, vs methanol control)	TSST-1 produced compared to the control (S. aureus FRI-1169)	Reduction of Toxin (%) (S. aureus (MN8); S. aureus MN8, test compound 0.01 μg/mL, 24 h, vs methanol control)	TSST-1 produced compared to the control (S. aureus FRI-1187)
Oc1ccc(Cc2ccccc2)cc1 [4-Hydroxydiphenyl-methane, 4-hydroxydiphenyl methane]	24	about 24%					
Oc1c(Cl)cc(Cl)c(Cl)c1Cc1c(O)c(Cl)cc(Cl)c1Cl [Hexachlorophene, hexachlorophene]			significantly less	68			
Oc1cc(Cl)ccc1Oc1ccc(Cl)cc1Cl [Triclosan, triclosan]			significantly less		produced less TSST-1	88	produced less TSST-1
